The test system of data set [1] is P. berghei hepatic stage. The experiment in a line: In vitro hepatic infection of Huh7 cells by luciferase-expressing P. berghei. The data set is classed as cell-based. Particulars: Plasmodium berghei; for inhibition at 1 µM: Huh-7, read-out: percentage of inhibition of hepatic infection; for IC50: Huh-7, hepatic stage, Huh7 cells, 48 h after infection. The method, then: The inhibitory activity of test compounds on in vitro hepatic infection by P. berghei was determined by comparing the parasite load in compound- and solvent-treated P. berghei-infected Huh7 cells. Infection load was assessed by measurement of luminescence intensity in Huh7 cells infected, with a firefly luciferase-expressing P. berghei line, as previously described ([Ploemen et al., 2009]; [António et al., 2017]). Briefly, Huh7 cells were seeded in 96-well plates (1.0 × 10^4 cells per well) the day before drug treatment and infection. The medium was replaced by another medium containing the appropriate concentration of each compound approximately 1 h prior to infection with sporozoites freshly obtained through disruption of salivary glands of infected female Anopheles stephensi mosquitoes. Sporozoite addition was followed by centrifugation at 1,800 g for 5 min. Parasite infection load was measured 48 h after infection by a bioluminescence assay (Biotium). Cell confluence, a surrogate measure of compound toxicity to Huh7 cells, was assessed by fluorescence measurements using the alamarBlue assay, according to the manufacturer’s instructions. […] Specifically, non-linear regression analysis was employed to fit the normalized results of the dose-response curves, and IC50 values were determined using GraphPad Prism 8.0 (GraphPad Software, La Jolla, California, United States).

Data set [2] has as its system P. falciparum strain NF54. The experiment in a line: Blood stage antiplasmodial activity, SYBR green I flow cytometry. It is filed as cell-based. Particulars: Plasmodium falciparum, NF54, 48 h. The method, then:
Ring-stage synchronized cultures of P. falciparum strain NF54 at 2.5% hematocrit and at approximately 1% parasitemia were incubated with test compounds or dimethyl sulfoxide (DMSO, vehicle control) in 96-well plates for 48 h at 37°C in a 5% CO2 and 5% O2 atmosphere. Stock solutions of chloroquine (positive control) and compounds 9i, 12a, and 14a were prepared in DMSO. Working solutions were prepared from the stock solutions in complete malaria culture medium (CMCM), which consists of RPMI 1640 supplemented with 25 mM HEPES, 2.4 mM L-glutamine, 50 μg/ml gentamicin, 0.5% w/v Albumax, 11 mM glucose, 1.47 mM hypoxanthine, and 37.3 mM NaHCO3. For each measurement, 5 μl of the culture (approximately 800,000 cells) were stained with the DNA-specific dye SYBR green I. After 20 min of incubation in the dark, the stained sample was analyzed by flow cytometry. Approximately 100,000 events were analyzed in each flow cytometry measurement. Two independent experiments were performed, and all samples were analyzed in triplicate.

In data set [3] the test system is HIV-2 03PTHCC19. Kind of data set: microbe, parasite or virus in culture. Particulars: Human immunodeficiency virus 2, TZM-bl; for IC50 / IC90: 48 h; for IC50: read-out: IC50 HIV-2; for IC90: read-out: IC90 HIV-2; for inhibition at 25 µg/mL: read-out: MPI (%) 25 μg/mL.
Data set [4] concerns HIV-1 SG3.1. The experiment in a line: microbe, parasite or virus in culture. Particulars: for IC50 / IC90: 48 h; for IC90: read-out: IC90 HIV-1; for inhibition at 25 µg/mL: read-out: MPI (%) 25 μg/mL.
Data set [5] can be described thus: Cellular viability assay (alamarBlue) in TZM-bl cells. It is filed as cell-based. Particulars: human, 50% cytotoxic concentration.
Data set [6] has as its system P. berghei hepatic stage. Also on record: method as in Bártolo et al., 2021; Alves et al., 2021c. Particulars: hepatic infection; ref Bártolo et al., 2021; Alves et al., 2021c; cited from earlier work.
The test system of a further data set is TZM-bl cells. Further details: method as in Bártolo et al., 2021. Particulars: lead molecule, ref Bártolo et al., 2021; cited from earlier work.
Data set [7] deals with P. falciparum strain NF54. Further details: method as in Bártolo et al., 2021; Alves et al., 2021c. Particulars: erythrocytic infection; ref Bártolo et al., 2021; Alves et al., 2021c; cited from earlier work.
A further data set concerns HIV protease. Also on record: method as in Bártolo et al., 2021. Particulars: ref Bártolo et al., 2021; cited from earlier work.
The test system of data set [8] is HIV-2 03PTHCC19. Also on record: method as in Bártolo et al., 2021. Particulars: ref Bártolo et al., 2021, cited from earlier work.
Data set [9] concerns HIV-1 SG3.1. Particulars: ref Bártolo et al., 2021, cited from earlier work.
The mark [10] stands for this setting: Human immunodeficiency virus 1, TZM-bl, read-out: IC50 HIV-1, TZM-bl cells, 48 h.
The mark [11] stands for this setting: Human immunodeficiency virus 1, TZM-bl.

Like-named read-outs stand apart in the source and are kept apart here.

`COc1ccc(COC(=O)C2=CCC3(C(=O)N4C(C(=O)OC(c5ccccc5)c5ccccc5)C(C)(C)SC43)C2C(=O)c2ccc(F)cc2)cc1` (stereo not drawn) [Compound 14a, (1′R,2′R)-benzhydryl spiro[(2-(4-fluorobenzoyl)-3-(4-methoxybenzyloxycarbonyl)cyclopent-3-ene)-1′,6-penicillanate]]: the melting point is 72.9 to 74.9 °C. Moreover, in the data set with P. berghei hepatic stage [1], the inhibition at 1 µM is < 50% and half-maximal inhibition (IC50) required 0.75 ± 0.107 µM. Moreover, the IC50 in data set [2] is 0.292 ± 0.062 µM. For the same compound, in the data set on HIV-2 03PTHCC19 [3], the IC50 is 0.013 µM, the 90% effect concentration (IC90) was determined as 0.051 µM and the inhibition at 25 µg/mL was 100%. Besides, in the data set on HIV-1 SG3.1 [4] (setting [10]), the IC50 was < 0.02 µM. In the data set with HIV-1 SG3.1 [4] (setting [11]), the IC90 was found to be 0.048 µM and the inhibition at 25 µg/mL was 100%. Further, the 50% inhibitory concentration (IC50) in the data set with HIV-1 SG3.1 [4] (read-out: IC50 HIV-1, TZM-bl cells) was determined as 0.012 µM. Further, in [5], the CC50 worked out at 75.1 µM.

`CC1(C)SC2N(C(=O)C23CC=C(C(=O)OCc2ccccc2)C3C(=O)c2ccc(F)cc2)C1C(=O)OC(c1ccccc1)c1ccccc1` (stereo not drawn) [Compound 12a, (1′R,2′R)-benzhydryl spiro[(2-(4-fluorobenzoyl)-3-benzyloxycarbonylcyclopent-3-ene)-1′,6-penicillanate]] displayed a melting point of 64.5 to 66.5 °C. For the same compound, in the data set with P. berghei hepatic stage [1], the inhibition at 1 µM was < 50% and it took 0.924 ± 0.027 µM to reach half-maximal inhibition (IC50). Besides, half-maximal inhibition in [2] (IC50) was put at 0.56 ± 0.126 µM. Further, in the data set on HIV-2 03PTHCC19 [3], the 50% inhibitory concentration (IC50) worked out at 0.011 µM, the 90% effect concentration (IC90) was determined as 0.055 µM and the inhibition at 25 µg/mL was found to be 100%. Besides, the IC50 with HIV-1 SG3.1 [4] (setting [10]) was 0.019 µM. In the data set on HIV-1 SG3.1 [4] (setting [11]), the IC90 is 0.054 µM and the inhibition at 25 µg/mL turned out to be 93%. Besides, the CC50 in [5] was found to be 58.1 µM.

In the case of `CC1(C)SC2N(C(=O)C23CC=C(C(=O)OCc2ccccc2)C3C(=O)c2ccccc2)C1C(=O)OC(c1ccccc1)c1ccccc1` (centres unmarked) [BSS-730A], the half-maximal inhibitory concentration (IC50) with P. berghei hepatic stage [6] was 0.55 ± 0.14 µM; in [7] it was 0.43 ± 0.04 µM; in the data set with HIV-2 03PTHCC19 [8], 0.008 µM; with HIV-1 SG3.1 [9] (Alves et al., 2021c) it was 0.014 µM. Besides, the CC50 with TZM-bl cells is 76.8 µM. Further, in the data set on HIV protease, the “HIV antiprotease activity (in words)” value is given as “no HIV antiprotease activity”. Further, the “MPI (%) 25 μg/mL” value in the data set on HIV-2 03PTHCC19 [8] (HIV-2, 25 μg/mL, lead molecule) is recorded as 99%; in the data set with HIV-1 SG3.1 [9] (HIV-1, 25 μg/mL, lead molecule), 99%. Also, the “Therapeutic index (CC50/IC50)” value was 9605.00 in the data set with HIV-2 03PTHCC19 [8] (HIV-2, lead molecule) and 5488.57 in the data set with HIV-1 SG3.1 [9] (HIV-1, lead molecule). The 90% effect concentration (IC90) is 0.064 µM in the data set with HIV-2 03PTHCC19 [8] (lead molecule) and 0.025 µM in the data set on HIV-1 SG3.1 [9] (lead molecule).

Values taken from article PMC9585939, “Unveiling a family of spiro-β-lactams with anti-HIV and antiplasmodial activity via phosphine-catalyzed [3+2] annulation of 6-alkylidene-penicillanates and allenoates” (Frontiers in Chemistry, 2022).
